This note sets out measurements from a melting point compilation (Tetko et al.; mined from patent text by program, amines drawn as free bases though some values may be those of a salt).

Some results are limits rather than exact numbers.

What is called melting point is the temperature, or range, at which the solid turns liquid. In turn, `CC(=O)Nc1nc(-c2ccc([N+](=O)[O-])cc2)c(C)[nH]1` displayed a melting point of 230 to 235 °C.
To `N#Cc1nc(-c2nn(-c3c(Cl)cc(C(F)(F)F)cc3Cl)nc2Cl)[nH]c1C#N` belongs 206 to 208 °C; to `COc1ccc(-c2nc(CNC(=O)CCC(=O)O)sc2-c2ccc(OC)cc2)cc1`, 110 to 116 °C; to `CC(C)[C@@H]1C[C@@H]([C@H](CC2CCCCC2)NC(=O)OC(C)(C)C)OC1=O`, 114 to 116 °C.
Take `O=C(c1ccc([N+](=O)[O-])cc1)N1CCCCc2ccccc21`: the melting point is 148 to 150 °C.
`COC(C)OC(=O)C1CC(=O)N(c2ccc(C(C)(C)C)cc2)C1` (centres undefined) yielded a melting point of 60 to 61 °C.
`O=C(O)c1cccc(C=CC(=O)c2ccccc2)c1` displayed a melting point of 198 to 201 °C.
On to `CC1SC(=O)NN=C1c1ccc2c(c1)C(=NNC(=O)c1cccs1)C(=O)N2` (centres undefined), for which the melting point is > 300 °C.
As for `Cc1cccc(NC(=O)NC2N=C(c3ccccc3)c3ccsc3N(C)C2=O)c1` (centres undefined), the melting point fell in the range of 128 to 130 °C.
To `CCC(C)(C)OC(=O)NC(C)(Cc1c[nH]c2ccccc12)C(=O)NCCc1cccs1` (centres undefined) belongs 95 to 98 °C; to `Cc1c(-c2ccccc2)c2c(c3c1[nH]c1ccc(O)cc13)C(=O)NC2=O`, 270 to 280 °C; to `c1ccc(N=C2SCS2)nc1`, 98.7 to 99.7 °C.
In turn, `CC1(C)CCC(C)(C)c2cc(C(=O)COc3ccc(C(=O)O)cc3)ccc21` had a melting point of 168 to 170 °C.
Regarding `Cc1nnc2n1-c1ccc(Cl)cc1C(N1CCOCC1)=NC2`, the melting point was 243 to 253 °C.
Consider `Nc1ccn(C2OC(CO)C(O)C2O[N+](=O)[O-])c(=O)n1` (centres undefined), for which the melting point was 151 to 153 °C.
Take `Cn1c(C(=O)O)c(Oc2ccc(Cl)cc2N)c2ccccc21`: the melting point lay in the range of 204 to 206 °C.
As to `O=C1CCCCc2cc(Cl)c(Cl)cc21`, the melting point was > 250 °C.
`O=C(O)CCc1cc(CCNS(=O)(=O)c2ccc(Cl)cc2)cc(Cc2ccc(F)cc2)c1` yielded a melting point of 85 to 87 °C.
Turning to `CC1CCN(c2cc(F)cc(C(=O)Nc3ccc(Oc4ccnc(NC5CCCC5)n4)c4ccccc34)c2)CC1`, the melting point was in the range of 88 to 90 °C.
To `CCOC(=O)c1cnc2scnn2c1=O` belongs 228 to 230 °C.
In turn, `COC(=O)c1cccc(/C=C/c2ccccc2)c1` registered a melting point of 108 to 109 °C.
To `c1ccc(Nc2nc(N3CCN(c4ccccc4)CC3)nc3c2SCC3)cc1` belongs 174 to 175 °C; to `Cc1ccc(-c2ccc(C(=O)Nc3ccc4nc(CN5CCCCC5)ccc4c3)cc2)cc1`, 198 to 200 °C; to `Cn1cc(C(=O)O)c([N+](=O)[O-])n1`, 185 to 187 °C.
`CC(C=CC=C(C)C=CC1=C(C)C(=O)CCC1(C)C)=CC=CC=C(C)C=CC=C(C)C=CC1=C(C)C(=O)CCC1(C)C` registered a melting point of 205 to 207 °C.
As to `CCOC(=O)C1Cc2sc(N)c(C(=O)c3ccccc3Cl)c2C1` (centres undefined), the melting point fell in the range of 121 to 122 °C.
Compound `Cn1cc(-c2cc(-c3cnc4[nH]ccc4c3)ccn2)n(-c2ccccc2)c1=O` gave a melting point of 264 °C.
`CCOC(=O)[C@@H](CC(=O)c1ccc2ccccc2c1)NC(C)=O`: the melting point lay in the range of 94 to 95 °C.
As to `CCCC(CCC)n1c(CC)nc2[nH]c(=O)n(C)c(=O)c21`, the melting point was 152 to 153 °C.
In turn, `O=C(c1ccccc1CBr)c1cc(Cl)ccc1CBr` gave a melting point of 152 to 153 °C.
`Nc1cc(Oc2ccccc2)c([N+](=O)[O-])cc1Cl` displayed a melting point of 122 to 124 °C.
Compound `Cc1nc(-c2ccc(OCc3cccnc3)cc2)no1` yielded a melting point of 55 to 56 °C.
To `CC(=O)N1CCc2ccc(C(=O)CCCCl)cc2CC1` belongs 103 to 106 °C; to `CC(Oc1ccc(Cl)cc1Cl)c1nnc(N)s1` (centres undefined), 119 to 123 °C; to `Cc1nn(CCCCO)c(-c2ccc(F)cc2)c1-c1ccc2c(c1)NC(=O)CO2`, 194 to 196 °C.
For `O=C(Nc1ccc(C(=O)N2Cc3ccccc3Sc3ccccc32)cc1)c1ccccc1Cl`, the melting point is 116 to 119 °C.
`CCOC(=O)c1cn2c3c(c(F)c(F)cc3c1=O)OCC2CO` (centres undefined) registered a melting point of 268 to 270 °C.
Compound `COc1ccc(C2Sc3cccc4cccc(c34)N(CCN(C)C)C(=O)C2OC(C)=O)cc1` (centres undefined) had a melting point of 111 to 112 °C.
Consider `CCC(=O)N1Cc2cn(C)nc2-c2cc(Cl)ccc21`, for which the melting point was in the range of 137 to 138 °C.
To `CCn1ncc2c(OC)c3c(nc21)C(=O)c1ccccc1CC3` belongs 197 to 200 °C; to `O=C(CCBr)NCC(=O)c1ccccc1`, 114 °C.
`CCC(C)(COc1nn2nc(C)nc2cc1C)CS(N)(=O)=O` (centres undefined) returned a melting point of 194 to 195 °C.
`Cc1nn(C)c2c1N=C(c1ccc(-n3c(C)nc4cnccc43)cc1)C(C)C(=O)N2C` (centres undefined) yielded a melting point of 222 to 225 °C.
Compound `CON=C(C#CCN1CCOCC1)C(=O)OC` registered a melting point of 43 to 45 °C.
The compound `CCCCc1nc2c(N)nc3ccccc3c2n1CCCCCCl` had a melting point of 144 to 146 °C.
The compound `CS(=O)(=O)OCCOc1cc([N+](=O)[O-])ccc1N` had a melting point of 132 to 135 °C.
Turning to `O=C(CCCCCCNC(=O)C(=O)c1cn2c3c(cccc13)CCC2)NOC1CCCCO1` (centres undefined), the melting point was in the range of 140 to 142 °C.
In the case of `CCCc1nc(Cl)c(C(=O)O)n1Cc1ccc(C2(C(=O)O)CC=CC2)s1`, the melting point fell in the range of 170 to 172 °C.
`COC(=O)c1c(N)cccc1S(=O)(=O)NC(C)(C)C` registered a melting point of 132 to 133 °C.
`COc1ccc(Nc2nc(Cl)cc(NC3CCCCCC3)n2)cc1Cl` returned a melting point of 74 to 76 °C.
`COc1cccc2c(=O)cc(C=Cc3ccc(C(=O)O)cc3)oc12` displayed a melting point of 298 to 300 °C.
The compound `COc1ccc(-c2coc3ccc(C(=O)NNC(C)=O)cc23)cc1` had a melting point of 219 to 220 °C.
For `CC(=O)NC[C@H]1CN(c2cc(F)c(N3CCC(n4nnc(N5CCN(C)CC5)n4)CC3)c(F)c2)C(=O)O1`, the melting point lay within 184 to 188 °C.
Compound `Nc1c(Cl)cc(C(=O)NC2CCNCC2)c2c1CCO2` had a melting point of 190 °C.
`COc1ccc(Cc2nc3c(cnn3C(CCCc3ccccc3)C(C)O)c(=O)[nH]2)cc1` (centres undefined) returned a melting point of 41 °C.
With `COc1nc(C)cc2nc(S(=O)(=O)Nc3nn(C)c4ccccc34)nn12`, the melting point lay within 181 to 183 °C.
Turning to `CN1C(=S)COC1=Nc1cccc(C(F)(F)F)c1`, the melting point was 84 to 86 °C.
`COc1cc(C(=O)O)ccc1Cc1c(Cl)n(C)c2cc(Cl)c(CC(C)NC(=O)N(C)C)cc12` (centres undefined) had a melting point of 125 to 135 °C.
In turn, `CCOC(=O)c1cn(C)c2c(OCC)csc2c1=O` showed a melting point of 198 to 200 °C.
In the case of `Cn1cc(C2=C(c3cn(C)c4c([N+](=O)[O-])cccc34)C(=O)NC2=O)c2ccc(F)cc21`, the melting point was in the range of 259 to 261 °C.
With `COc1c(C)c2c(c(OS(=O)(=O)c3ccc(C)cc3)c1CC=C(C)C=O)C(=O)OC2`, the melting point was in the range of 168 to 173 °C.
For the compound `Cc1cccc(-c2cc(C(F)(F)F)cc3c2OC(CN)C3)c1` (centres undefined), the melting point was > 250 °C.
Compound `CC(=O)NC[C@H]1CN(c2ccc(N3CCC(=C(C#N)c4ccccn4)CC3)c(F)c2)C(=O)O1` had a melting point of 265 to 267 °C.
For `COc1cc(Nc2c(C#N)cnc3cc(-c4ccc(CN5CCC[C@@H]5C(N)=O)cc4)ccc23)c(Cl)cc1Cl` the value was 180 to 182 °C; for `Cc1cc(C)c2cc(-c3ccccc3)c(N)nc2n1`, 191 to 195 °C; for `O=C(O)C1CCc2c(c3ccccc3n2C(=O)c2cccc(C(F)(F)F)c2)C1` (centres undefined), 173 to 175 °C.
Take `O=C(CC(=S)N1CCC[C@H]1C(=O)O)c1ccccc1`: the melting point is 151 to 152 °C.
The compound `CNC(=O)c1cc(N[C@@H]2c3ccccc3C[C@H]2O)c2nc(C)c(C)n2c1` (relative stereo) showed a melting point of 143 to 144 °C.
Compound `CN1CCC[C@@H]1Cc1c(-c2ccccc2)[nH]c2ccccc12` gave a melting point of 132 °C.
For `CCOC(=O)c1sc(Oc2ccccc2)c2c1CCCC2=O` the value was 125 to 127 °C.
The compound `CCOC(=O)N1CCC(Nc2nccc(Oc3ccc(NC(=O)c4cc(F)cc(N5CCOCC5)c4)c4ccccc34)n2)CC1` registered a melting point of 122 to 124 °C.
To `Cc1nc(N2CCc3ccccc3CC2)c(C#N)c(=O)n1C[C@H]1COC(C)(C)O1` belongs 166 to 168 °C; to `CCOC(=O)c1ccc(NC(=O)c2c(OC)cccc2OC)cc1`, 183 to 185 °C.
As to `CN1CCC(c2n[nH]c3cc(F)ccc23)CC1`, the melting point lay in the range of 217 to 220 °C.
For the compound `CC(I)CC(F)(F)C(F)(F)C(F)(F)C(F)(F)CC(C)I` (centres undefined), the melting point is 35 to 35.5 °C.
`CCCn1c(=O)c(/C=C/C(=O)OCC)c2n(c1=O)CCS2` had a melting point of 140 to 141 °C.
The compound `COc1nc(C)nc(NC(=O)NS(=O)(=O)c2ccccc2OC(F)F)n1` yielded a melting point of 140 to 141 °C.
As to `NC(=O)C1(c2cccc(Br)c2)CCOCC1`, the melting point is 245 to 247 °C.
In turn, `COC(=O)Cc1cccc(NC(=O)NCC(=O)O)c1` yielded a melting point of 136 °C.
`N#CC=Cc1ccc(-c2ccccc2)cc1` registered a melting point of 43.7 °C.
For `Nc1c(Cl)cc(CO)cc1Cl` the value was 110 to 112 °C; for `CCCc1cc(-c2noc3cc(O)ccc23)ccc1O`, 227 to 229 °C.
In turn, `Cn1c(CNCC2CCOCC2)cc2cc(NC(=O)c3ccc(OCC4CCOC4)cc3)ccc21` (centres undefined) yielded a melting point of 153 to 154 °C.
`CC(C)(C)OC(=O)NCCCCC(=O)N[C@@H](CC(=O)OCc1ccccc1)C(=O)N[C@@H](Cc1ccccc1)C(=O)OCc1ccccc1` came in with a melting point of 120 °C.
Take `COC(=O)C1c2ccccc2C(=O)N(CC(F)(F)F)C1c1cn[nH]c1` (centres undefined): the melting point fell in the range of 161 to 162 °C.
In the case of `CCOC(=O)c1ccc(CNc2ccncc2[N+](=O)[O-])cc1`, the melting point was in the range of 166 to 168 °C.
`O=c1cc(-c2c(F)cccc2F)[nH]c(=O)n1-c1ccc(Cl)c(Cl)c1`: the melting point turned out to be 256 °C.
The compound `O=C(O)c1cn(-c2ccnc3ccccc23)c2ccc(F)cc12` registered a melting point of 148 °C.
In turn, `Cc1cc(O)n2nc(S(=O)(=O)Nc3c(Cl)ccc(C)c3Cl)nc2n1` yielded a melting point of 346 to 347 °C.
